Measured values from patent publication US10179770B2, “Quinolines derivatives as novel anticancer agents” (GENOSCIENCE PHARMA, priority 2013, dated 2019).

Key:
Test in all cases: NCI-60 screen (SRB)
Format in all cases: cell-based
A549/ATCC = A549/ATCC (Non-Small Cell Lung)
Protocol: (§1) The human tumor cell lines of the cancer screening panel are grown in RPMI 1640 medium containing 5% fetal bovine serum and 2 mM L-glutamine. For a typical screening experiment, cells are inoculated into 96 well microtiter plates in 100 μL at plating densities ranging from 5,000 to 40,000 cells/well depending on the doubling time of individual cell lines. After cell inoculation, the microtiter plates are incubated at 37° C., 5% CO2, 95% air and 100% relative humidity for 24 h prior to addition of experimental drugs.
(§2) After 24 h, two plates of each cell line are fixed in situ with TCA, to represent a measurement of the cell population for each cell line at the time of drug addition (Tz). Experimental drug is solubilized in dimethyl sulfoxide at 400-fold the desired final maximum test concentration and stored frozen prior to use. At the time of drug addition, an aliquot of frozen concentrate is thawed and diluted to twice the desired final maximum test concentration with complete medium containing 50 μg/ml gentamicin. Additional four, 10-fold or ½ log serial dilutions are made to provide a total of five drug concentrations plus control. Aliquots of 100 μl of these different drug dilutions are added to the appropriate microtiter wells already containing 100 μl of medium, resulting in the required final drug concentrations.
(§3) Following drug addition, the plates are incubated for an additional 48 h at 37° C., 5% CO2, 95% air, and 100% relative humidity. For adherent cells, the assay is terminated by the addition of cold TCA. Cells are fixed in situ by the gentle addition of 50 μl of cold 50% (w/v) TCA (final concentration, 10% TCA) and incubated for 60 minutes at 4° C. The supernatant is discarded, and the plates are washed five times with tap water and air dried. Sulforhodamine B (SRB) solution (100 μl) at 0.4% (w/v) in 1% acetic acid is added to each well, and plates are incubated for 10 minutes at room temperature. After staining, unbound dye is removed by washing five times with 1% acetic acid and the plates are air dried. Bound stain is subsequently solubilized with 10 mM trizma base, and the absorbance is read on an automated plate reader at a wavelength of 515 nm. For suspension cells, the methodology is the same except that the assay is terminated by fixing settled cells at the bottom of the wells by gently adding 50 μl of 80% TCA (final concentration, 16% TCA). Using the seven absorbance measurements [time zero, (Tz), control growth, (C), and test growth in the presence of drug at the five concentration levels (Ti)], the percentage growth is calculated at each of the drug concentrations levels.
(§4) Percentage growth inhibition is calculated as: [(Ti−Tz)/(C−Tz)]×100 for concentrations for which Ti>/=Tz (1) [(Ti−Tz)/Tz]×100 for concentrations for which Ti<Tz (2)
(§5) Growth inhibition of 50% (GI50) is calculated from [(Ti−Tz)/(C−Tz)]×100=50 (3)
(§6) which is the drug concentration resulting in a 50% reduction in the net protein increase (as measured by SRB staining) in control cells during the drug incubation.
(§7) The drug concentration resulting in total growth inhibition (TGI) is calculated from Ti=Tz (4)
(§8) The LC50 (concentration of drug resulting in a 50% reduction in the measured protein at the end of the drug treatment as compared to that at the beginning) indicating a net loss of cells following treatment is calculated from [(Ti−Tz)/Tz]×100=−50 (5)
(§9) Values are calculated for each of these three parameters if the level of activity is reached; however, if the effect is not reached or is exceeded, the value for that parameter is expressed as greater or less than the maximum or minimum concentration tested.

CAKI-1 = CAKI-1 (Renal)
Protocol: as §1, §2, §3, §4, §5, §6, §7, §8, §9

CCRF-CEM = CCRF-CEM (Leukemia)
Protocol: as §1, §2, §3, §4, §5, §6, §7, §8, §9

Colo205 = conditions: COLO205 (Colon)
Protocol: as §1, §2, §3, §4, §5, §6, §7, §8, §9

DU-145 = DU-145 (Prostate)
Protocol: as §1, §2, §3, §4, §5, §6, §7, §8, §9

HCT-116 = HCT-116 (Colon)
Protocol: as §1, §2, §3, §4, §5, §6, §7, §8, §9

HCT-15 = HCT-15 (Colon)
Protocol: as §1, §2, §3, §4, §5, §6, §7, §8, §9

HOP-62 = HOP-62 (Non-Small Cell Lung)
Protocol: as §1, §2, §3, §4, §5, §6, §7, §8, §9

MCF7 = MCF7 (Breast)
Protocol: as §1, §2, §3, §4, §5, §6, §7, §8, §9

NCI-H23 = NCI-H23 (Non-Small Cell Lung)
Protocol: as §1, §2, §3, §4, §5, §6, §7, §8, §9

NCI-H322M = NCI-H322M (Non-Small Cell Lung)
Protocol: as §1, §2, §3, §4, §5, §6, §7, §8, §9

OVCAR-5 = OVCAR-5 (Ovarian)
Protocol: as §1, §2, §3, §4, §5, §6, §7, §8, §9

SK-OV3 = SK-OV3 (Ovarian)
Protocol: as §1, §2, §3, §4, §5, §6, §7, §8, §9

SN12C = SN12C (Renal)
Protocol: as §1, §2, §3, §4, §5, §6, §7, §8, §9

SNB-75 = SNB-75 (CNS)
Protocol: as §1, §2, §3, §4, §5, §6, §7, §8, §9

TK-10 = TK-10 (Renal)
Protocol: as §1, §2, §3, §4, §5, §6, §7, §8, §9

UO-31 = UO-31 (Renal)
Protocol: as §1, §2, §3, §4, §5, §6, §7, §8, §9

[1] = Homo sapiens, read-out: LC50 (the source's name)

SMILES: CCN(CC)C1CCN(C(C)c2cc(-c3ccccc3)nc3ccccc23)CC1.Cl.Cl (stereo not shown) [XIX-3, 2-phenyl-4-{1-[4-(N,N-diethylamino)piperidin-1-yl]-eth-1-yl}quinoline dihydrochloride]
- TGI (A549/ATCC): 31 µM
- Growth percent at 10 μM (A549/ATCC): + (cell growth 60 > % < 80)
- GI50 (A549/ATCC; Homo sapiens): 15 µM
- CC50 (A549/ATCC; [1]): 63 µM
- TGI (CAKI-1): 28 µM
- Growth percent at 10 μM (CAKI-1): + (cell growth 60 > % < 80)
- GI50 (CAKI-1; Homo sapiens): 13 µM
- CC50 (CAKI-1; [1]): 58 µM
- TGI (CCRF-CEM): 25 µM
- Growth percent at 10 μM (CCRF-CEM): ++ (cell growth 40 > % < 60)
- GI50 (CCRF-CEM; Homo sapiens): 9 µM
- CC50 (CCRF-CEM; [1]): 62 µM
- TGI (Colo205): 4 µM
- Growth percent at 10 μM (Colo205): ××× (cell growth −40 > % < −60)
- GI50 (Colo205; Homo sapiens, COLO 205): 2 µM
- CC50 (Colo205; Homo sapiens, COLO 205, read-out: LC50 (the source's name)): 7 µM
- TGI (DU-145): 28 µM
- Growth percent at 10 μM (DU-145): − (cell growth % > 80)
- GI50 (DU-145; Homo sapiens): 14 µM
- CC50 (DU-145; [1]): 54 µM
- TGI (HCT-116): 19 µM
- Growth percent at 10 μM (HCT-116): ++ (cell growth 40 > % < 60)
- GI50 (HCT-116; Homo sapiens): 5 µM
- CC50 (HCT-116; [1]): 51 µM
- TGI (HCT-15): 14 µM
- Growth percent at 10 μM (HCT-15): ++++ (cell growth % < 20)
- GI50 (HCT-15; Homo sapiens): 3 µM
- CC50 (HCT-15; [1]): 47 µM
- TGI (HOP-62): 22 µM
- Growth percent at 10 μM (HOP-62): − (cell growth % > 80)
- GI50 (HOP-62; Homo sapiens): 9 µM
- CC50 (HOP-62; [1]): 52 µM
- GI50 (MCF7; Homo sapiens): 8 µM
- LC50 (50% lethal concentration) (MCF7; Homo sapiens): 56 µM
- TGI (MCF7): 22 µM
- Growth percent at 10 μM (MCF7): ++ (cell growth 40 > % < 60)
- GI50 (NCI-H23; Homo sapiens): > 100 µM
- CC50 (NCI-H23; [1]): > 100 µM
- TGI (NCI-H23): >100 µM
- Growth percent at 10 μM (NCI-H23): − (cell growth % > 80)
- GI50 (NCI-H322M; Homo sapiens): 11 µM
- CC50 (NCI-H322M; [1]): 52 µM
- TGI (NCI-H322M): 24 µM
- Growth percent at 10 μM (NCI-H322M): + (cell growth 60 > % < 80)
- GI50 (OVCAR-5; Homo sapiens): 13 µM
- CC50 (OVCAR-5; [1]): 58 µM
- TGI (OVCAR-5): 28 µM
- Growth percent at 10 μM (OVCAR-5): + (cell growth 60 > % < 80)
- GI50 (SK-OV3; Homo sapiens, SK-OV-3): 17 µM
- LC50 (concentration killing 50% of cells) (SK-OV3; Homo sapiens, SK-OV-3): 59 µM
- TGI (SK-OV3): 31 µM
- Growth percent at 10 μM (SK-OV3): − (cell growth % > 80)
- GI50 (SN12C; Homo sapiens): 12 µM
- LC50 (concentration giving 50% net cell kill) (SN12C; Homo sapiens): 26 µM
- TGI (SN12C): 26 µM
- Growth percent at 10 μM (SN12C): + (cell growth 60 > % < 80)
- GI50 (SNB-75; Homo sapiens): 12 µM
- CC50 (SNB-75; [1]): 55 µM
- TGI (SNB-75): 26 µM
- Growth percent at 10 μM (SNB-75): +++ (cell growth 20 > % < 40)
- GI50 (TK-10; Homo sapiens): 13 µM
- LC50 (concentration causing 50% net cell kill) (TK-10; Homo sapiens): 26 µM
- TGI (TK-10): 26 µM
- Growth percent at 10 μM (TK-10): − (cell growth % > 80)
- GI50 (UO-31; Homo sapiens): 8 µM
- CC50 (UO-31; [1]): 22 µM
- TGI (UO-31): 22 µM
- Growth percent at 10 μM (UO-31): ++ (cell growth 40 > % < 60)

SMILES: CC(C)(C)NC1CCN(c2cc(-c3ccc(Cl)cc3)nc3ccccc23)CC1.Cl.Cl [XII-4, 2-(4-chloro-phenyl)-4-(4-N-tert-butylamino-piperidin-1-yl)quinoline dihydrochloride]
- Growth percent at 10 μM (A549/ATCC): ++ (cell growth 40 > % < 60)
- Growth percent at 10 μM (CAKI-1): +++ (cell growth 20 > % < 40)
- Growth percent at 10 μM (CCRF-CEM): +++ (cell growth 20 > % < 40)
- Growth percent at 10 μM (Colo205): ×××× (cell growth −60 < % > −80)
- Growth percent at 10 μM (DU-145): − (cell growth % > 80)
- Growth percent at 10 μM (HCT-116): +++ (cell growth 20 > % < 40)
- Growth percent at 10 μM (HCT-15): ++++ (cell growth 0 > % < 20)
- Growth percent at 10 μM (HOP-62): + (cell growth 60 > % < 80)
- Growth percent at 10 μM (MCF7): ++ (cell growth 40 > % < 60)
- Growth percent at 10 μM (NCI-H23): − (cell growth % > 80)
- Growth percent at 10 μM (NCI-H322M): ++ (cell growth 40 > % < 60)
- Growth percent at 10 μM (OVCAR-5): ++ (cell growth 40 > % < 60)
- Growth percent at 10 μM (SK-OV3): − (cell growth % > 80)
- Growth percent at 10 μM (SN12C): ++ (cell growth 40 > % < 60)
- Growth percent at 10 μM (SNB-75): ++ (cell growth 40 > % < 60)
- Growth percent at 10 μM (TK-10): − (cell growth % > 80)
- Growth percent at 10 μM (UO-31): +++ (cell growth 20 > % < 40)
